Measurements: ChEMBL document CHEMBL1141287, “Cardenolides from Saussurea stella with cytotoxicity toward cancer cells” (J Nat Prod, 2007)

Assays:
[1] = Cytotoxicity against human BCG823 cells after 48 hrs by sulforhodamine B assay; format: functional, cell-based; conditions: BCG823, 48 h
Bel-7402 = test: Cytotoxicity against human Bel7402 cells after 48 hrs by sulforhodamine B assay; format: functional, cell-based; conditions: Bel-7402, 48 h

Compound	IC50 [1]	IC50 (Bel-7402)
C[C@]12CC[C@H]3[C@@H](CC[C@]4(O)C[C@@H](O[C@@H]5OC[C@@H](O)[C@H](O)[C@H]5O)CC[C@]34C=O)[C@@]1(O)CC[C@@H]2C1=CC(=O)OC1	16 nM	130 nM
C[C@]12CC[C@H](O[C@@H]3OC[C@@H](O)[C@H](O)[C@H]3O)C[C@@]1(O)CC[C@@H]1[C@@H]2CC[C@]2(C)[C@@H](C3=CC(=O)OC3)CC[C@]12O	230 nM	480 nM
C[C@H]1O[C@@H](O[C@H]2CC[C@]3(C=O)[C@H]4CC[C@]5(C)[C@@H](C6=CC(=O)OC6)CC[C@]5(O)[C@@H]4CC[C@]3(O)C2)[C@H](O)[C@@H](O)[C@@H]1O	100 nM	20 nM
C[C@@H]1O[C@@H](O[C@H]2CC[C@@]3(C=O)[C@H](CC[C@@H]4[C@@H]3CC[C@]3(C)[C@@H](C5=CC(=O)OC5)CC[C@]43O)C2)[C@H](O)[C@H](O)[C@H]1O[C@@H]1O[C@H](CO)[C@@H](O)[C@H](O)[C@H]1O	290 nM	870 nM
C[C@H]1O[C@@H](O[C@H]2CC[C@]3(C)[C@H]4CC[C@]5(C)[C@@H](C6=CC(=O)OC6)CC[C@]5(O)[C@@H]4CC[C@]3(O)C2)[C@H](O)[C@@H](O)[C@@H]1O	70 nM	310 nM
C[C@H]1O[C@@H](O[C@H]2CC[C@]3(C)[C@H]4CC[C@]5(C)[C@@H](C6=CC(=O)OC6)CC[C@]5(O)[C@@H]4CC[C@]3(O)C2)[C@H](O)[C@@H](O)[C@H]1O	120 nM	400 nM
C[C@@H]1O[C@@H](O[C@H]2CC[C@@]3(CO)[C@H](CC[C@@H]4[C@@H]3CC[C@]3(C)[C@@H](C5=CC(=O)OC5)CC[C@]43O)C2)[C@H](O)[C@H](O)[C@H]1O	77 nM	28 nM
C[C@@H]1O[C@@H](O[C@@H]2C[C@H]3CC[C@@H]4[C@H](CC[C@]5(C)[C@@H](C6=CC(=O)OC6)CC[C@]45O)[C@@]3(C)[C@H](O)C2)[C@H](O)[C@H](O)[C@H]1O	56 nM	240 nM
C[C@@H]1O[C@@H](O[C@H]2CC[C@]3(C=O)[C@H]4CC[C@]5(C)[C@@H](C6=CC(=O)OC6)CC[C@]5(O)[C@@H]4CC[C@]3(O)C2)[C@H](O)[C@H](O)[C@H]1O [CONVALLATOXIN]	16 nM	50 nM
